Values quoted from earlier work in patent US20260216162A1, “SELECTIVE FIASMA TREATMENT” (VALO HEALTH, INC., priority 2023, published 2026).

Key:
[1] = test system: acid sphyingomyelinase (ASMase); details: final concentration of 10 µM, 30 minutes, 37° C.; normalized to control cells treated with the solvent alone

SMILES	Residual ASMase Activity (%) [1]	Log P
CNCCC(Oc1ccc(C(F)(F)F)cc1)c1ccccc1 (stereo not drawn) [Fluoxetine]	13.0%	–
Fc1ccc([C@@H]2CCNC[C@H]2COc2ccc3c(c2)OCO3)cc1 [Paroxetine]	31.7%	3.9
